# Assay results taken from patent US20080227738A1, “Compositions and methods for cell dedifferentiation and tissue regeneration” (University of Utah Research Foundation, priority 2000, published 2008).
# Columns and labels:
# zebrafish fin regenerate [1] = experiment: BrdU incorporation in regenerating zebrafish fins; format: in vivo; conditions: 17 μM
# Method: BrdU was dissolved in PBS and fish were treated at a final concentration of 100 μg/ml. For one experiment, fins were amputated and allowed to regenerate for 18 or 24 hours in the absence or presence of 17 μM Ri, with BrdU present during the final 6 hours of regeneration. To test the effects of Ri on proliferation in the established blastema, fins were first allowed to regenerate for 40 hours. Then, untreated fish regenerated an additional 2 hours before a 6 hour incubation with BrdU, while Ri-treated fish underwent a 2 hour R1 preincubation period before a 6 hour period with both Ri and BrdU.
# Fins were collected and fixed in 70% ethanol/2 mM glycine overnight, and 10 μm sections were made from frozen blocks. These sections were stained for BrdU incorporation using a detection kit (Roche; Basel, Switzerland), and counterstained with hematoxylin. Sections from untreated and Ri-treated fins were simultaneously processed and developed. […]
# BrdU incorporation was used to analyze DNA replication and cellular proliferation. […] To determine if blastemal cells underwent DNA replication in the presence of Ri, BrdU incorporation in fins briefly treated with Ri during regenerative outgrowth (40-48 hours postamputation) was analyzed. […]
# C2C12 myotubes = experiment: Characterization of RNLE activity: pretreated extract, BrdU S phase reentry in C2C12 myotubes; format: cell-based, mouse; conditions: C2C12 myotubes with RNLE
# Method: C2C12 myotubes were plated at low density in DM as described above. Regeneration extract was treated in one of three ways: (1) boiled for 5 minutes; (2) digested with 1% trypsin for 30 minutes at 37° C.; or (3) taken through several freeze/thaw cycles. In three separate experiments, the treated extracts were applied to cultured myotubes at a concentration of 0.3 mg/ml with media and extract changed daily. Immediately after the extract was digested with 1% trypsin, the trypsin was inactivated by dilution in DM in which the cells were cultured. In the freeze/thaw experiments, extract activity was tested after both 2 and 3 freeze/thaw cycles. The effect of the pretreated extracts on myotube S phase reentry was assessed after 4 days of treatment by performing BrdU incorporation assays. The results were compared to BrdU incorporation in myotubes cultured in DM containing RNLE (positive control) and myotubes cultured in DM alone or DM containing nonRNLE (negative controls).
# The dedifferentiation signal(s) found in the RNLE could belong to a number of different types of biomolecules, including proteins, lipids, nucleic acids, and polysaccharides. To characterize the nature of one or more of the active components of the RNLE, the inventors subjected the extract to a number of different conditions. […]
# [2] = Tolerability of inhibitor solution in adult zebrafish; format: in vivo; conditions: 1.7 μM or 17 μM in fish water, 0.01% DMSO
# Method: (§1) SU5402 (Ri; SUGEN, South San Francisco, Calif.) was dissolved in dimethylsulfoxide (DMSO) and added to fish water at a final concentration of 1.7 μM or 17 μM (0.01% DMSO). Up to 10 fish were treated in one liter of water, and tanks were maintained in the dark at 31-33° C. with SU5402 solutions replaced every 24 hours.
# zebrafish fin regenerate [3] = experiment: Whole mount in situ hybridization of marker genes in zebrafish fin regenerates; format: in vivo
# Source text: To generate antisense RNA probes with a dioxigenin labeling kit (Boehringer Mannheim), a 2.8 kb fgfr1 cDNA fragment, a 1.7 kb fgfr2 cDNA fragment, a 0.6 kb fgfr3 cDNA fragment, a 1.5 kb fgfr4 cDNA fragment (Thisse et al., 1995), a 1.2 kb msxb cDNA fragment, a 2.0 kb msxc cDNA (Akimenko et al., 1995), a 0.6 kb fgf8(ace) cDNA fragment (Reifers et al., 1998), a 2.2 kb fgf4.1 cDNA (Draper et al., 1999), a 2.4 kb wfgf cDNA (Draper et al., 1999), a 3.8 kb β-catenin cDNA (Kelly et al., 1995), a 2.6 kb flkl cDNA fragment (Liao et al., 1997), and a 1.8 kb shh cDNA (Krauss et al., 1993) were used. Fragments containing zebrafish fgfr cDNA sequences were isolated by degenerate PCR using known fgfr tyrosine kinase domain sequences of other species. The assignment of fgfr genes was based on homology comparisons; these sequences have been deposited in Genbank.
# Fin regenerates were fixed overnight at 4° C. in 4% paraformaldehyde in phosphate-buffered saline (PBS), washed briefly in 2 changes of PBS, and transferred to methanol for storage at −20° C. Fins were rehydrated stepwise through ethanol in PBS and then washed in 4 changes of PBS-0.1% polyoxyethylenesorbitan monolaurate (Tween-20; PBT). Then, fins were incubated with 10 μg/ml proteinase K in PBT for 30 minutes and rinsed twice in PBT before 20 minutes refixation. After five washes with PBT, fins were prehybridized at 65° C. for one hour in buffer consisting of 50% formamide, 5×SSC (750 mM NaCl, 75 mM sodium citrate, pH 7.0), 0.1% Tween-20, 50 μg/ml heparin, and 500 μg/ml yeast RNA (pH to 6.0 with citric acid), and then hybridized overnight in hybridization buffer including 0.5 μg/ml dioxigenin-labeled RNA probe. Fins were washed at 65° C. for 10 minutes each in 75% hybridization buffer/25% 2×SSC, 50% hybridization buffer/50% 2×SSC, and 25% hybridization buffer/75% 2×SSC, followed by 2 washes for 30 minutes each in 0.2×SSC at 65° C. Further washes for 5 minutes each were done at room temperature in 75% 0.2×SSC/25% PBT, 50% 0.2×SSC/50% PBT, and 25% 0.2×SSC/75% PBT. After a one hour incubation period in PBT with 2 mg/ml bovine serum albumin, fins were incubated for 2 hours in the same solution with a 1:2000 dilution of fin-preabsorbed, anti-dioxigenin antibody coupled to alkaline phosphatase (Boehringer Mannheim). For the alkaline phosphatase reaction, fins were first washed 3 times in reaction buffer (100 mM Tris-HCl pH 9.5, 50 mM MgCl2, 100 mM NaCl, 0.1% Tween-20, 1 mM levamisol) and then incubated in reaction buffer with 1× nitro blue terazolium/5-bromo-4-chloro-3-indolyl-phosphate (NBT/BCIP) substrate. In general, positive signals were obtained in 0.5-3 hours. Following the staining reaction, fins were washed in several changes of PBT and fixed in 4% paraformaldehyde in PBS. To obtain sections of fin regenerates, fins were first mounted in 1.5% agarose/5% sucrose and then incubated in 30% sucrose overnight. Frozen blocks were sectioned at 14 μm and observed using Nomarski optics.
# For each probe, at least 7 fins were examined for expression at 0, 6, 12, 18, 24, 48, and 96 hours post-amputation. For 18, 24, and 48 hour timepoints with fgfr1, msxb, msxc, and wfgf probes, 25-100 fins were examined in several different experiments. Experiments with sense strand RNA probes were performed with initial antisense experiments to estimate the specificity of signals. To assess gene expression in pharmacologically treated fins, an equal number of untreated fins were also examined.
# To investigate the molecular effects of this outgrowth inhibition by Ri, marker expression was examined following a 24 hour R1 application period. […] Similar effects on msxc expression were observed (n=8). msxb expression was not detected in 24 or 48 hour fin regenerates exposed to R1 for 48 hours (n=18). Thus, Fgf signaling is required for blastema maintenance and regenerative outgrowth, but is not crucial for other processes including melanocyte migration or bone deposition. […]
# insulin receptor = molecular target: T1, insulin receptor (Homo sapiens, UniProt P06213); conditions: mammalian cells; cited from earlier work
# T1 construct: host or cells: mammalian cells (not specified)
# [4] = molecular target: T2, epidermal growth factor receptor (Homo sapiens, UniProt P00533); conditions: mammalian cells; cited from earlier work
# T2 construct: host or cells: mammalian cells (not specified)
# zebrafish embryos = experiment: Application to developing zebrafish embryos; format: in vivo; conditions: at the IC50 concentration (printed 10-20 μl)
# Method: The IC50 of Ri with respect to Fgfrl activity in mammalian cells was shown previously to be […] (Mohammadi et al., 1997). […] Such embryos appear remarkably similar to those injected with mRNA encoding a dominant-negative Fgfrl (Griffin et al., 1995).
# [5] = molecular target: Flkl, a vascular endothelial growth factor receptor (Homo sapiens, UniProt P35968); conditions: cited from earlier work
# [6] = test system: zebrafish caudal fin regenerate; experiment: Zebrafish caudal fin regeneration under Fgfr1 inhibitor treatment; format: in vivo
# Method: Zebrafish 3-6 months of age were obtained from EKKWill Waterlife Resources (Gibsonton, Fla.) and used for caudal fin amputations. Fish were anaesthetized in tricaine and amputations were made using a razor blade, removing one-half of the fin. Animals were allowed to regenerate for various times in water kept at 31-33° C.; these temperatures facilitate more rapid regeneration than more commonly used temperatures of 25-28° C. (Johnson and Weston, 1995). Fish were then anaesthetized and the fin regenerate was removed for analyses.
# as §1
# To determine if signaling through Fgfrl is required for regeneration, zebrafish were treated for 96 hours with Ri immediately following amputation. Treatment of zebrafish with 1.7 μM Ri (0.5 mg/liter) inhibited fin regeneration to varying degrees.
# To determine if a blastema forms in the absence of Fgf signaling, Ri-treated fin regenerates were examined morphologically.
# Because wfgf and fgfr1 expression domains were maintained in the fin regenerate during outgrowth, and as blastemal cell BrdU incorporation was blocked by Ri, Fgf signaling likely participates in blastemal maintenance/regenerative outgrowth. To test this hypothesis, the effects of Ri on ongoing regenerates were examined.
# [7] = test system: platelet-derived growth factor receptor; conditions: mammalian cells; cited from earlier work
# serine threonine kinases = conditions: cited from earlier work
# [8] = fins regenerated normally 24 or 48 hours, then 24 hour application, of 18 treated fins
# [9] = treated from amputation, msxb: 21 fins, msxc: 8 fins
# [10] = 1.7 μM (0.5 mg/liter), 96 hours from amputation, of 10 fins examined
# [11] = Ri-treated fin regenerates, morphology
# Flkl, a vascular endothelial growth factor receptor, sequence (P35968 20-1356): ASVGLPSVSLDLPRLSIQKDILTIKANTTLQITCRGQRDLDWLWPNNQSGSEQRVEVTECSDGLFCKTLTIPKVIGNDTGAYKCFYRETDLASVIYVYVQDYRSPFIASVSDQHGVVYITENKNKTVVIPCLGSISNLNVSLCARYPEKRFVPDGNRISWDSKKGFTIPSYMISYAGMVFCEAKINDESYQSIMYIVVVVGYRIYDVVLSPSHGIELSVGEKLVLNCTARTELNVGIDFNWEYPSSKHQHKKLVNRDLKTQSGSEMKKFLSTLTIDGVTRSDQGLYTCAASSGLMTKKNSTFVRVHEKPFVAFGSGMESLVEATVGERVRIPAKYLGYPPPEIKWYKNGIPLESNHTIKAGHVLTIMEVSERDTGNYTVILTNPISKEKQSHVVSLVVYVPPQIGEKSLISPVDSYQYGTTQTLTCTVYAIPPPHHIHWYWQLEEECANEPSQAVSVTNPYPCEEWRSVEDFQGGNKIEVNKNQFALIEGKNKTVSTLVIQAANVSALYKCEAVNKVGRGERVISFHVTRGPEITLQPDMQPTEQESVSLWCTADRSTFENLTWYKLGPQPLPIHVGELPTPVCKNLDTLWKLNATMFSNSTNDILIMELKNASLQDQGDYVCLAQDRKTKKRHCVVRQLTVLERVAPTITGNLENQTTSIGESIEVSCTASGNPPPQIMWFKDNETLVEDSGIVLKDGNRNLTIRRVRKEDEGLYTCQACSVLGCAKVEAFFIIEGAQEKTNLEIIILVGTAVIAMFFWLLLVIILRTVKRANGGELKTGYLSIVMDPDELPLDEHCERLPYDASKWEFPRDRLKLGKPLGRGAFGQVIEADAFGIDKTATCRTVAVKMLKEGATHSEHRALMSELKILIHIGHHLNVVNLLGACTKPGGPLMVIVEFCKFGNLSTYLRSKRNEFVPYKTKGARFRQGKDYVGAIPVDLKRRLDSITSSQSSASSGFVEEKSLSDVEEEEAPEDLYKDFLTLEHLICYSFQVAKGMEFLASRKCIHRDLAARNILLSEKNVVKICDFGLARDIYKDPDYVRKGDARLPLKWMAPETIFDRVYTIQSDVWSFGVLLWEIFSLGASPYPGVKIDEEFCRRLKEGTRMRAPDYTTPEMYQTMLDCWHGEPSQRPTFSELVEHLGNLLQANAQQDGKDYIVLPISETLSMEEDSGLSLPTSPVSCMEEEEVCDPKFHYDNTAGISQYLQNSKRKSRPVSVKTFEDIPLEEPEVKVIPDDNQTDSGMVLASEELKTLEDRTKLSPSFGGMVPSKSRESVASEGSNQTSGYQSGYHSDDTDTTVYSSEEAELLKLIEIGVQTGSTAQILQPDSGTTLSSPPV
# T2 sequence (P00533 25-1210): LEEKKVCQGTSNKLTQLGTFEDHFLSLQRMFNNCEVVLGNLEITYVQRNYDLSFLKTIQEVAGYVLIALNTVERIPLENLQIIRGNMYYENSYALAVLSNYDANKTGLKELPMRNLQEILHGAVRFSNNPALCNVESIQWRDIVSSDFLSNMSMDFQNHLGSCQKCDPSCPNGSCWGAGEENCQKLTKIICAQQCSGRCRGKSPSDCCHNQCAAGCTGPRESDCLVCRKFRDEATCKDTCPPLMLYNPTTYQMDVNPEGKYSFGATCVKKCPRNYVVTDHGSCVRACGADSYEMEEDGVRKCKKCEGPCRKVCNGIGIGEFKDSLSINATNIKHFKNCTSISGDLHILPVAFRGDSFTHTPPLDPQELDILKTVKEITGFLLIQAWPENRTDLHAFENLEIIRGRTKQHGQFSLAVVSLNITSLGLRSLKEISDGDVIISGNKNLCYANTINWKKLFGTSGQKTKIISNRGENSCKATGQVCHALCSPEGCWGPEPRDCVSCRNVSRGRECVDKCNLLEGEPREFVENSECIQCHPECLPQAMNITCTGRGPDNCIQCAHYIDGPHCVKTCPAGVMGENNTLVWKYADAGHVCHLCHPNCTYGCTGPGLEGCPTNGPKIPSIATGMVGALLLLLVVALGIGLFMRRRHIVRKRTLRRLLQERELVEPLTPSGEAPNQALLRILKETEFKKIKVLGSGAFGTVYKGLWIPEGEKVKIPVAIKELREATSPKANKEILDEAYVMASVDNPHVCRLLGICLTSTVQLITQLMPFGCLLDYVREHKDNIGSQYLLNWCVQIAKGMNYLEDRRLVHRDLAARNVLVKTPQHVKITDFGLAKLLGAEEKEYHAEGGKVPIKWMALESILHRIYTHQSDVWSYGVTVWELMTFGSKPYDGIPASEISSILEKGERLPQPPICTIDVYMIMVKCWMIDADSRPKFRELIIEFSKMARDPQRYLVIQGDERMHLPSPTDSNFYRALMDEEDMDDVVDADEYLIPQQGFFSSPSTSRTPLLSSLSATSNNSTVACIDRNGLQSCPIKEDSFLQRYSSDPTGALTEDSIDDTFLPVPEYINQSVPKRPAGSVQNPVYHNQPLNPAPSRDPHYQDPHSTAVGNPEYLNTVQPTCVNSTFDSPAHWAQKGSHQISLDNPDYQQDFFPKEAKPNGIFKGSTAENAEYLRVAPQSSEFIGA
# T1 sequence (P06213 28-1382): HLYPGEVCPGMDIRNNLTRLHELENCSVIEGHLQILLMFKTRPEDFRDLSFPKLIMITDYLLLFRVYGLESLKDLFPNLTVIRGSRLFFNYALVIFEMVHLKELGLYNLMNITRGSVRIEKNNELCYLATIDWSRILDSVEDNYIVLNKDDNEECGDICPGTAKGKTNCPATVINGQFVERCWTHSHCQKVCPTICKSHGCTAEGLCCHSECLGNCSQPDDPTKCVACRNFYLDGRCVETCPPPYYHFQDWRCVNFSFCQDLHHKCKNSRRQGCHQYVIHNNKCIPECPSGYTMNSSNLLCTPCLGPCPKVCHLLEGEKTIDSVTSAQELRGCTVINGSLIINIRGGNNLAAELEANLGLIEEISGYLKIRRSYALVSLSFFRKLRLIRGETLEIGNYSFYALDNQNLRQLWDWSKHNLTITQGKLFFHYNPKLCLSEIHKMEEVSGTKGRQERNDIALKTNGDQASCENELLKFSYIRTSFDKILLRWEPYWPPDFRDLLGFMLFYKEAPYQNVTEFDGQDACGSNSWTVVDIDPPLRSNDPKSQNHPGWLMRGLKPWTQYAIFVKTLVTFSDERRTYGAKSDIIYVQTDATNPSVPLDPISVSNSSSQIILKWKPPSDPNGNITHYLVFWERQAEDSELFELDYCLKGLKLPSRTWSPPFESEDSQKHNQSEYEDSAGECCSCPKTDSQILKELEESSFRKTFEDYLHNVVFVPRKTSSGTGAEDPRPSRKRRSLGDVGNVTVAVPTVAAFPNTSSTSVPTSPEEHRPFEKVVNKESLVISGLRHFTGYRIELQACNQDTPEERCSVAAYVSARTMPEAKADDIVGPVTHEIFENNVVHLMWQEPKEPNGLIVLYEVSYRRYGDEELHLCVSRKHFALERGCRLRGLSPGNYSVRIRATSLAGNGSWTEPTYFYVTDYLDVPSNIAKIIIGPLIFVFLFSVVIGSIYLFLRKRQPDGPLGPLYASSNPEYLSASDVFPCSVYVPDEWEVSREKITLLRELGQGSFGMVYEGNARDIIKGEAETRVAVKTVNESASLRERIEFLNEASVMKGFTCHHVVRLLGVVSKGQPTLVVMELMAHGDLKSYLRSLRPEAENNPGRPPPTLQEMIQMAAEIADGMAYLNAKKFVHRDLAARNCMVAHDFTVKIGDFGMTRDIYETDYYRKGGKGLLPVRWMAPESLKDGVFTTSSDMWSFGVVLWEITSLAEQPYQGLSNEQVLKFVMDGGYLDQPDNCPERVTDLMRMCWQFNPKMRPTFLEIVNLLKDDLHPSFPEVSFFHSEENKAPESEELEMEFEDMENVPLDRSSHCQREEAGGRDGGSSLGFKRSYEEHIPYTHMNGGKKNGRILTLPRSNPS
smiles,measurement,setting,value
Cc1c[nH]c(/C=C2\C(=O)Nc3ccccc32)c1CCC(=O)O [SU5402],Proximal mesenchymal cell BrdU labeling,zebrafish fin regenerate [1]; 12-18 hours and 18-24 hours postamputation,Normal
same,Blastemal cell incorporation of BrdU,"zebrafish fin regenerate [1]; brief treatment during regenerative outgrowth, 40-48 hours postamputation",greatly reduced
same,BrdU: effect of Fgfr inhibitor on RNLE S phase reentry,C2C12 myotubes,No effect
same,Survival and behavior in inhibitor solution,[2],survived normally and demonstrated no unusual behavior
same,msxb expression after 48 hour exposure,"zebrafish fin regenerate [3]; 24 or 48 hour fin regenerates exposed for 48 hours, n=18",not detected
same,Fins with detectable shh transcripts,"zebrafish fin regenerate [3]; 48 or 72 hour fin regenerates treated for 24 hours, of 18 fins",0
same,Epidermal wfgf expression,"zebrafish fin regenerate [3]; 48 or 72 hour regenerates, 24 hour application, n=16",No significant reduction
same,β-catenin expression,"zebrafish fin regenerate [3]; Ri-treated fins, n=7",normal
same,Fins with low levels of msxb expression,zebrafish fin regenerate [3]; [8],8
same,Fins with no detectable msxb expression,zebrafish fin regenerate [3]; [8],10
same,"msxb and msxc expression, 24 hour regenerates",zebrafish fin regenerate [3]; [9],extremely low or undetectable
same,"msxb and msxc expression, 48 hour regenerates",zebrafish fin regenerate [3]; [9],undetectable
same,Concentration at which insulin receptor is not blocked,insulin receptor,greater than 50 μM
same,Concentration at which epidermal growth factor receptor is not blocked,[4],greater than 50 μM
same,Effect on developing zebrafish embryos,zebrafish embryos,dramatic truncation of posterior structures
same,Concentration that inhibits Flkl,[5],10 to 20 µM
same,Fins that regenerated normally,[6]; [10],4
same,Fins with a regenerative block,[6]; [10],one
same,Fins with slight regenerative defects,[6]; [10],5
same,Fin regeneration,"[6]; 17 μM (5 mg/liter), 96 hours from amputation, all animals, n=9",complete regenerative blocks
same,Blastemal morphogenesis,[6]; [11],did not occur
same,Wound epidermis over the fin stumps,[6]; [11],consistently formed
same,Outgrowth of ongoing regenerates,[6]; treatment of 24-72 hour fin regenerates,inhibited further outgrowth
same,New bone deposition,[6]; treatment of ongoing fin regenerates,not interrupted
same,Concentration at which platelet-derived growth factor receptor is not blocked,[7],greater than 50 μM
same,Effects on activities of numerous serine threonine kinases,serine threonine kinases,no effects
